Columns and labels:
Assay in all cases: relative viability (nuclei count vs DMSO), 5 days (fraction); higher = more cells survive
[1] = tested on: COR-L 105
Method in brief: (§1)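 Lung cancer cell lines were pin-tool dosed in 1536-well plates on the day after seeding, with either a lone drug or a fixed anchor-drug dose plus five library-drug doses (not always all listed) in √10 steps. Nuclei were counted on 4× images after 5 days. Relative viability is the ratio of treated-well to vehicle-well nuclei counts, with each value a median of duplicate plates.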

[2] = tested on: EMC-BAC-2
Method in brief: as §1

[3] = tested on: H3255
Method in brief: as §1

[4] = tested on: LC-2-ad
Method in brief: as §1

[5] = tested on: LK-2
Method in brief: as §1

[6] = tested on: NCI-H1395
Method in brief: as §1

[7] = tested on: NCI-H1437
Method in brief: as §1

[8] = tested on: NCI-H1651
Method in brief: as §1

[9] = tested on: NCI-H1755
Method in brief: as §1

[10] = tested on: NCI-H1793
Method in brief: as §1

[11] = tested on: NCI-H1915
Method in brief: as §1

[12] = tested on: NCI-H1944
Method in brief: as §1

[13] = tested on: NCI-H2085
Method in brief: as §1

[14] = tested on: NCI-H2087
Method in brief: as §1

[15] = tested on: NCI-H2342
Method in brief: as §1

[16] = tested on: NCI-H2347
Method in brief: as §1

[17] = tested on: NCI-H522
Method in brief: as §1

[18] = tested on: NCI-H661
Method in brief: as §1

[19] = tested on: PC-3 [JPC-3]
Method in brief: as §1

[20] = tested on: SK-LU-1
Method in brief: as §1

## COCC1(CO)C(=O)C2CCN1CC2 (stereo unspecified) [PRIMA-1MET] + Nc1ncn([C@H]2C[C@H](O)[C@@H](CO)O2)c(=O)n1 [Decitabine] (partner 2 µM)
[1]; first compound 0.2 µM
  relative viability: 0.695
[1]; first compound 0.6325 µM
  relative viability: 0.619
[1]; first compound 2 µM
  relative viability: 0.551
[1]; first compound 6.325 µM
  relative viability: 0.597
[1]; first compound 20 µM
  relative viability: 0.179
[2]; first compound 0.2 µM
  relative viability: 1
[2]; first compound 0.6325 µM
  relative viability: 0.818
[2]; first compound 2 µM
  relative viability: 0.967
[2]; first compound 6.325 µM
  relative viability: 0.938
[2]; first compound 20 µM
  relative viability: 0.928
[3]; first compound 0.2 µM
  relative viability: 0.553
[3]; first compound 0.6325 µM
  relative viability: 0.54
[3]; first compound 2 µM
  relative viability: 0.524
[3]; first compound 6.325 µM
  relative viability: 0.695
[3]; first compound 20 µM
  relative viability: 0.522
[4]; first compound 0.2 µM
  relative viability: 0.902
[4]; first compound 0.6325 µM
  relative viability: 0.607
[4]; first compound 2 µM
  relative viability: 0.773
[4]; first compound 6.325 µM
  relative viability: 0.776
[4]; first compound 20 µM
  relative viability: 0.776
[5]; first compound 0.2 µM
  relative viability: 0.262
[5]; first compound 0.6325 µM
  relative viability: 0.158
[5]; first compound 2 µM
  relative viability: 0.247
[5]; first compound 6.325 µM
  relative viability: 0.182
[5]; first compound 20 µM
  relative viability: 0.0846
[6]; first compound 0.2 µM
  relative viability: 0.712
[6]; first compound 2 µM
  relative viability: 0.708
[6]; first compound 6.325 µM
  relative viability: 0.838
[6]; first compound 20 µM
  relative viability: 0.67
[7]; first compound 0.2 µM
  relative viability: 0.607
[7]; first compound 0.6325 µM
  relative viability: 0.37
[7]; first compound 2 µM
  relative viability: 0.599
[7]; first compound 6.325 µM
  relative viability: 0.59
[7]; first compound 20 µM
  relative viability: 0.552
[8]; first compound 0.2 µM
  relative viability: 0.616
[8]; first compound 0.6325 µM
  relative viability: 0.178
[8]; first compound 2 µM
  relative viability: 0.585
[8]; first compound 6.325 µM
  relative viability: 0.666
[8]; first compound 20 µM
  relative viability: 0.6
[9]; first compound 0.2 µM
  relative viability: 0.785
[9]; first compound 0.6325 µM
  relative viability: 0.583
[9]; first compound 2 µM
  relative viability: 0.72
[9]; first compound 6.325 µM
  relative viability: 0.723
[9]; first compound 20 µM
  relative viability: 0.772
[10]; first compound 0.2 µM
  relative viability: 0.484
[10]; first compound 0.6325 µM
  relative viability: 0.333
[10]; first compound 6.325 µM
  relative viability: 0.489
[10]; first compound 20 µM
  relative viability: 0.424
[11]; first compound 0.2 µM
  relative viability: 0.278
[11]; first compound 0.6325 µM
  relative viability: 0.234
[11]; first compound 2 µM
  relative viability: 0.252
[11]; first compound 6.325 µM
  relative viability: 0.256
[11]; first compound 20 µM
  relative viability: 0.27
[12]; first compound 0.2 µM
  relative viability: 0.436
[12]; first compound 0.6325 µM
  relative viability: 0.35
[12]; first compound 2 µM
  relative viability: 0.408
[12]; first compound 6.325 µM
  relative viability: 0.431
[12]; first compound 20 µM
  relative viability: 0.446
[13]; first compound 0.2 µM
  relative viability: 0.59
[13]; first compound 0.6325 µM
  relative viability: 0.459
[13]; first compound 2 µM
  relative viability: 0.526
[13]; first compound 6.325 µM
  relative viability: 0.526
[13]; first compound 20 µM
  relative viability: 0.198
[14]; first compound 0.6325 µM
  relative viability: 0.226
[14]; first compound 2 µM
  relative viability: 0.315
[14]; first compound 6.325 µM
  relative viability: 0.251
[14]; first compound 20 µM
  relative viability: 0.174
[15]; first compound 0.2 µM
  relative viability: 0.671
[15]; first compound 0.6325 µM
  relative viability: 0.681
[15]; first compound 6.325 µM
  relative viability: 0.658
[15]; first compound 20 µM
  relative viability: 0.684
[16]; first compound 0.2 µM
  relative viability: 0.705
[16]; first compound 0.6325 µM
  relative viability: 0.549
[16]; first compound 2 µM
  relative viability: 0.605
[16]; first compound 6.325 µM
  relative viability: 0.668
[16]; first compound 20 µM
  relative viability: 0.63
[17]; first compound 0.2 µM
  relative viability: 0.648
[17]; first compound 0.6325 µM
  relative viability: 0.592
[17]; first compound 2 µM
  relative viability: 0.573
[17]; first compound 6.325 µM
  relative viability: 0.672
[17]; first compound 20 µM
  relative viability: 0.178
[18]; first compound 0.2 µM
  relative viability: 0.549
[18]; first compound 0.6325 µM
  relative viability: 0.459
[18]; first compound 2 µM
  relative viability: 0.517
[18]; first compound 6.325 µM
  relative viability: 0.567
[18]; first compound 20 µM
  relative viability: 0.497
[19]; first compound 0.2 µM
  relative viability: 0.822
[19]; first compound 0.6325 µM
  relative viability: 0.712
[19]; first compound 2 µM
  relative viability: 0.841
[19]; first compound 6.325 µM
  relative viability: 0.84
[19]; first compound 20 µM
  relative viability: 0.802
[20]; first compound 0.2 µM
  relative viability: 0.523
[20]; first compound 0.6325 µM
  relative viability: 0.513
[20]; first compound 2 µM
  relative viability: 0.503
[20]; first compound 6.325 µM
  relative viability: 0.707
[20]; first compound 20 µM
  relative viability: 0.593
